US20040224958A1, “Pyridopyrimidinone derivatives for treatment of neurodegenerative disease” (priority 2000, published 2004)
Read-outs that look alike come from different tables or passages of the source.

What was measured:
cdc2/cyclinB = cdc2/cyclinB (Homo sapiens, UniProt P06493); assay: Cyclin-Dependent Kinase Assay cdc2/cyclinB
cdk4/D = cdk4/D (Homo sapiens, UniProt P11802); assay: Cyclin-Dependent Kinase 4 (cdk4) Assay; assay type: biochemical
Cdk5/p25 = Cdk5/p25 (Homo sapiens, UniProt Q00535); assay: Cyclin-Dependent Kinase 5 (cdk5) Assay; assay type: biochemical
Description: Cyclin-Dependent Kinase 5 (cdk5) Assay
Enzyme assays for IC50 determinations and kinetic evaluation were performed in 96-well filter plates (Millipore MAPH NOB 10). […] All components except histone and ATP were added to wells, and the plate was placed on a shaker for 5 minutes. The reaction was started by adding histone and [^32P]ATP, and the plate was shaken at 30° C. for 45 minutes. The reaction was terminated by addition of 0.1 mL of 150 mM phosphoric acid. The plate was kept at 4° C. for 30 minutes to allow substrate to precipitate. The wells were then washed three times with 0.2 mL of 75 mM phosphoric acid and ^32P incorporation was determined with a beta plate counter (Wallac Inc, Gaithersburg, Md.).

cdk2/cyclinA = cdk2/cyclinA (Homo sapiens, UniProt P24941); assay: Cyclin-Dependent Kinase Assay cdk2/cyclinA
cdk2/cyclinE = cdk2/cyclinE (Homo sapiens, UniProt P24941); assay: Cyclin-Dependent Kinase Assay cdk2/cyclinE

cdc2/cyclinB, sequence (P06493 whole entry): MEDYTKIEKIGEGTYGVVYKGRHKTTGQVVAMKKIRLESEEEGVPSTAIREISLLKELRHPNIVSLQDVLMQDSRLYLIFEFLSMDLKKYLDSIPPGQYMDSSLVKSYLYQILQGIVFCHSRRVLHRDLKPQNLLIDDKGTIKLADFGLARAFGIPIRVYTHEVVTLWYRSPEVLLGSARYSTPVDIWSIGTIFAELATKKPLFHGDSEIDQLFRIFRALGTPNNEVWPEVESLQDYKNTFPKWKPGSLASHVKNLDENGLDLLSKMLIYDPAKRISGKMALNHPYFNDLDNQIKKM
cdc2/cyclinB, sequence (P14635 whole entry, further chain): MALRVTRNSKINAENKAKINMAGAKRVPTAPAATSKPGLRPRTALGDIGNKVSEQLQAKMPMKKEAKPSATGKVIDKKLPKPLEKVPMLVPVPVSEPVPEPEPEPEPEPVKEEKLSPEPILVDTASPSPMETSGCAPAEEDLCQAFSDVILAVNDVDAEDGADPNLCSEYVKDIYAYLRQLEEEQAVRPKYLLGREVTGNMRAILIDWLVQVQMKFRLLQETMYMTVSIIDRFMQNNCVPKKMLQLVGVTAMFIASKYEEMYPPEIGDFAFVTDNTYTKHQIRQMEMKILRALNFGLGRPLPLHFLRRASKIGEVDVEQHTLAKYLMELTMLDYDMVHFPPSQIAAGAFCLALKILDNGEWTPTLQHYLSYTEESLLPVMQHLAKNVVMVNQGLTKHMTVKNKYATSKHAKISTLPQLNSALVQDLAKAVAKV
cdk4/D, sequence (P11802 whole entry): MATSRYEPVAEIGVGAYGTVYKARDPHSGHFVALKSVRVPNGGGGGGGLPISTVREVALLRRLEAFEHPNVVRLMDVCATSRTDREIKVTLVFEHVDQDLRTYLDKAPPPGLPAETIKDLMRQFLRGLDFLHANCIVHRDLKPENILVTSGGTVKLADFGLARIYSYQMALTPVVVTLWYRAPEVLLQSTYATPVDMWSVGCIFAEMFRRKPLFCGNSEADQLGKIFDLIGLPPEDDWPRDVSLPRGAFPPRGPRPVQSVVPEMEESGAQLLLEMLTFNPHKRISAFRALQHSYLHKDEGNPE
cdk4/D, sequence (P24385 whole entry, further chain): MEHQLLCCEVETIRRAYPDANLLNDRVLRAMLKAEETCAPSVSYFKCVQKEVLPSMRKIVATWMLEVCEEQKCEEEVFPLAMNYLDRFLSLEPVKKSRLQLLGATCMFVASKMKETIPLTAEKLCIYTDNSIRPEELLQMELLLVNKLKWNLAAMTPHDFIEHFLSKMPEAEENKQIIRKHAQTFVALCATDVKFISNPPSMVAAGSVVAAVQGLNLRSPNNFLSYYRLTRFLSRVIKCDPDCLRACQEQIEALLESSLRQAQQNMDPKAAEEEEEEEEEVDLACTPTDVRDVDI

| Compound | IC50 (cdc2/cyclinB) | IC50 (cdk4/D; Table 1, read-out: cdk4/D IC50) | IC50 (Cdk5/p25; Table 1) | melting point | IC50 (cdk2/cyclinA; cdk2/A IC50, Table 1) | IC50 (cdk2/cyclinE; cdk2/E IC50, Table 1) | IC50 (cdk2/cyclinE; Cdk2/E IC50, Table 3) | IC50 (cdk4/D; Table 3, read-out: Cdk4 IC50) | IC50 (Cdk5/p25; Table 3) | IC50 (cdk2/cyclinA; Cdk2/A IC50, Table 3) |
| --- | --- | --- | --- | --- | --- | --- | --- | --- | --- | --- |
| O=c1ccc2cnc(Nc3ccc(N4CCCCC4)cc3)nc2n1[C@@H]1C[C@H]2CC[C@@H]1C2 (relative stereo) [Example 181, 8-Bicyclo[2.2.1]hept-2-yl-2-(4-piperidin-1-yl-phenylamino)-8H-pyrido[2,3-d]pyrimidin-7-one] | 33.4 µM | 0.0577 µM | 0.591 µM | 243 to 244 °C | 0.195 µM | – | – | – | – | – |
| Cn1c(=O)ccc2cnc(Nc3ccccc3)nc21 [Example 61, 8-Methyl-2-phenylamino-8H-pyrido[2,3-d]pyrimidin-7-one] | – | – | – | 244 to 247 °C | – | – | 1.68 µM | 5.48 µM | 0.089 µM | 1.15 µM |
| COc1ccc(Nc2ncc3ccc(=O)n(C(C)C)c3n2)cc1 [Example 111, 8-Isopropyl-2-(4-methoxy-phenylamino)-8H-pyrido[2,3-d]pyrimidin-7-one] | – | – | – | 153 to 155 °C | – | – | 0.58 µM | 0.617 µM | 0.0098 µM | 0.12 µM |
| CN1CCN(c2ccc(Nc3ncc4ccc(=O)n(CCOCc5ccccc5)c4n3)cc2)CC1 [Example 140] | – | – | 5.17 µM | 183 to 191 °C | 13.4 µM | 23.6 µM | – | – | – | – |
| CC1CC(C)CN(c2ccc(Nc3ncc4ccc(=O)n(C5CCCCC5)c4n3)cc2)C1 (stereo not drawn) [Example 167] | 8.91 µM | 0.43 µM | 2.68 µM | 238 to 240 °C | 0.272 µM | – | – | – | – | – |
| CC1CCCN(c2ccc(Nc3ncc4ccc(=O)n(C5CCCCC5)c4n3)cc2)C1 (stereo not drawn) [Example 175, 8-Cyclohexyl-2-[4-(3-methyl-piperidin-1-yl)-phenylamino]-8H-pyrido[2,3-d]pyrimidin-7-one] | – | 0.27 µM | 0.69 µM | 189 to 190 °C | 0.711 µM | 0.433 µM | – | – | – | – |
| O=c1ccc2cnc(Nc3ccc(N4CCCCC4)cc3)nc2n1C1CCOCC1 [Example 211, 2-(4-Piperidin-1-yl-phenylamino)-8-(tetrahydro-pyran-4-yl)-8H-pyrido[2,3-d]pyrimidin-7-one] | – | 0.153 µM | 0.336 µM | 254 to 255 °C | 0.58 µM | 7.6 µM | – | – | – | – |
| O=c1ccc2cnc(Nc3ccc(N4CCC(CCCO)CC4)cc3)nc2n1C1CC2CCC1C2 (stereo not drawn) [Example 214, 8-Bicyclo[2.2.1]hept-2-yl-2-{4-[4-(3-hydroxy-propyl)-piperidin-1-yl]-phenylamino}-8H-pyrido[2,3-d]pyrimidin-7-one] | – | 0.008 µM | 3.32 µM | 223 °C | 0.205 µM | 0.126 µM | – | – | – | – |
| O=c1ccc2cnc(Nc3ccc(-c4ccccc4)cc3)nc2n1C1CC2CCC1C2 (stereo not drawn) [Example 223, 8-Bicyclo[2.2.1]hept-2-yl-2-(biphenyl-4-ylamino)-8H-pyrido[2,3-d]pyrimidin-7-one] | – | – | 0.587 µM | 255 to 257 °C | 18 µM | 1.95 µM | – | – | – | – |
| O=c1ccc2cnc(Nc3ccc(N4CCC(CCCN5CCOCC5)CC4)cc3)nc2n1C1CC2CCC1C2 (stereo not drawn) [Example 235, 8-Bicyclo[2.2.1]hept-2-yl-2-{4-[4-(3-morpholin-4-yl-propyl)-piperidin-1-yl]-phenylamino}-8H-pyrido[2,3-d]pyrimidin-7-one] | 1.7 µM | 0.037 µM | 1.46 µM | 197 to 198 °C | 0.096 µM | – | – | – | – | – |
| CC(C)n1c(=O)ccc2cnc(Nc3cccc([N+](=O)[O-])c3)nc21 [Example 623, 8-Isopropyl-2-(3-nitro-phenylamino)-8H-pyrido[2,3-d]pyrimidin-7-one] | – | – | – | 202 to 203 °C | – | – | 0.76 µM | 6.25 µM | 0.021 µM | 0.297 µM |
| CC(C)n1c(=O)ccc2cnc(Nc3ccc(O)cc3)nc21 [Example 624, 8-Isopropyl-2-(4-hydroxy-phenylamino)-8H-pyrido[2,3-]pyrimidin-7-one] | – | – | – | > 220 °C | – | – | 0.221 µM | 0.255 µM | 0.015 µM | 0.061 µM |

Next, values leading:

| IC50 (cdc2/cyclinB) | IC50 (cdk4/D; Table 1, read-out: cdk4/D IC50) | IC50 (Cdk5/p25; Table 1) | melting point | IC50 (cdk2/cyclinA; cdk2/A IC50, Table 1) | IC50 (cdk2/cyclinE; cdk2/E IC50, Table 1) | IC50 (cdk2/cyclinE; Cdk2/E IC50, Table 3) | IC50 (cdk4/D; Table 3, read-out: Cdk4 IC50) | IC50 (Cdk5/p25; Table 3) | IC50 (cdk2/cyclinA; Cdk2/A IC50, Table 3) | Compound |
| --- | --- | --- | --- | --- | --- | --- | --- | --- | --- | --- |
| – | 0.94 µM | 0.31 µM | 215 to 216 °C | – | 33.8 µM | – | – | – | – | O=c1ccc2cnc(Nc3ccccc3)nc2n1Cc1ccccc1 [Example 35, 8-Benzyl-2-phenylamino-8H-pyrido[2,3-d]pyrimidin-7-one] |
| – | – | 0.053 µM | 215 to 217 °C | – | – | 0.56 µM | 1.24 µM | 0.032 µM | 0.421 µM | CCn1c(=O)ccc2cnc(Nc3ccc(F)cc3)nc21 [Example 88, 8-Ethyl-2-(4-fluorophenylamino)-8H-pyrido[2,3-d]pyrimidin-7-one] |
| – | 0.0066 µM | 0.019 µM | 105 to 107 °C | 0.0425 µM | 0.109 µM | – | – | – | – | CCN(CC)CCOc1ccc(Nc2ncc3ccc(=O)n(C4CCCC4)c3n2)cc1 [Example 117, 8-Cyclopentyl-2-[4-(2-diethylamino-ethoxy)-phenylamino]-8H-pyrido[2,3-d]pyrimidin-7-one] |
| – | 0.2 µM | 0.237 µM | 165 to 167 °C | 0.206 µM | 1.3 µM | – | – | – | – | CCN(CC)CCOc1ccc(Nc2ncc3ccc(=O)n(-c4ccccc4)c3n2)cc1 [Example 118, 2-[4-(2-Diethylamino-ethoxy)-phenylamino]-8-phenyl-8H-pyrido[2,3-d]pyrimidin-7-one] |
| – | 0.053 µM | 0.326 µM | 119 to 121 °C | – | – | – | – | – | – | CCN(CC)CCOc1ccc(Nc2ncc3ccc(=O)n(C4CC4)c3n2)cc1 [Example 134, 8-Cyclopropyl-2-[4-(2-diethylamino-ethoxy)-phenylamino]-8H-pyrido[2,3-d]pyrimidin-7-one] |
| – | – | 0.24 µM | 210 to 211 °C | – | – | – | – | – | – | CN1CCN(c2ccc(Nc3ncc4ccc(=O)n(C5CC5)c4n3)cc2)CC1 [Example 136, 8-Cyclopropyl-2-[4-(4-methyl-piperazin-1-yl)-phenylamino]-81H-pyrido[2,3-d]pyrimidin-7-one] |
| – | – | 0.024 µM | 204 to 205 °C | – | – | – | – | – | – | CN(C)c1ccc(Nc2ncc3ccc(=O)n(C4CCCCC4)c3n2)cc1 [Example 147, 8-Cyclohexyl-2-(4-dimethylamino-phenylamino)-8H-pyrido[2,3-d]pyrimidin-7-one] |
| 0.25 µM | 0.175 µM | 0.113 µM | 199 to 200 °C | 0.061 µM | – | – | – | – | – | O=c1ccc2cnc(Nc3ccc(N4CCCC4)cc3)nc2n1C1CCCCC1 [Example 160, 8-Cyclohexyl-2-(4-pyrrolidin-1-yl-phenylamino)-8H1-pyrido[2,3-d]pyrimidin-7-one] |
| – | 0.136 µM | 0.0312 µM | 189 to 190 °C | – | 0.12 µM | – | – | – | – | O=c1ccc2cnc(Nc3ccc(-n4cccc4)cc3)nc2n1C1CCCC1 [Example 190, 8-Cyclopentyl-2-(4-pyrrol-1-yl-phenylamino)-8H-pyrido[2,3-d]pyrimidin-7-one] |
| – | 0.133 µM | 0.156 µM | 169 to 171 °C | – | – | – | – | – | – | Cc1cc(C)n(-c2ccc(Nc3ncc4ccc(=O)n(C5CCCC5)c4n3)cc2)n1 [Example 195, 8-Cyclopentyl-2-[4-(3,5-dimethyl-pyrazol-1-yl)-phenylamino]-8H-pyrido[2,3-d]pyrimidin-7-one] |
| – | 0.017 µM | 0.124 µM | 199 to 200 °C | – | 0.047 µM | – | – | – | – | O=c1ccc2cnc(Nc3ccc(N4CCC(CCO)CC4)cc3)nc2n1C1CCCC1 [Example 196] |
| 7.39 µM | 0.0335 µM | 0.127 µM | 208 to 209 °C | – | 2.32 µM | – | – | – | – | O=c1ccc2cnc(Nc3ccc(N4CCC(CCCO)CC4)cc3)nc2n1C1CCCC1 [Example 197, 8-Cyclopentyl-2-{4-[4-(3-hydroxy-propyl)-piperidin-1-yl]-phenylamino]-8H-pyrido[2,3-d]pyrimidin-7-one] |
| 0.118 µM | 0.015 µM | 0.019 µM | 216 to 217 °C | – | 0.044 µM | – | – | – | – | O=c1ccc2cnc(Nc3ccc(N4CCC(O)CC4)cc3)nc2n1C1CCCC1 [Example 198, 8-Cyclopentyl-2-[4-(4-hydroxy-piperidin-1-yl)-phenylamino]-8H-pyrido[2,3-d]pyrimidin-7-one] |
| – | 0.655 µM | 0.0779 µM | 90 to 91 °C | – | – | – | – | – | – | O=c1ccc2cnc(Nc3cccc(N4CCCCC4)c3)nc2n1C1CCCC1 [Example 202, 8-Cyclopentyl-2-(3-piperidin-1-yl-phenylamino)-8H-pyrido[2,3-d]pyrimidin-7-one] |
| – | 0.5 µM | 0.0826 µM | 164 to 165 °C | – | – | – | – | – | – | O=c1ccc2cnc(Nc3cccc(N4CCCCC4)c3)nc2n1C1CCCCC1 [Example 203, 8-Cyclohexyl-2-(3-piperidin-1-yl-phenylamino)-8H-pyrido[2,3-d]pyrimidin-7-one] |
